{
  "source": "patent US20220389515A1",
  "about": "“USE OF BIOMARKERS TO PREDICT CLINICAL SENSITIVITY TO 2-(4-CHLOROPHENYL)-N-((2-(2,6-DIOXOPIPERIDIN-3-YL)-1-OXOISOINDOLIN-5-YL)METHYL)-2,2-DIFLUOROACETAMIDE” (priority 2019, published 2022)",
  "format_in_all_cases": "cell-based, human",
  "key": {"[1]": {"system": "ATF4 target genes ATF3, CHOP and DDIT4", "test": "Quantitative RT-PCR of ATF4 target genes", "protocol": "The U937 GCN2−/− cell line is derived from a single clone of U937 parental cells stably infected with a lentiviral CRISPR vector targeting GCN2. […] Cells were incubated with DMSO or 200 nM Compound D and lysed at the indicated time points. Arrows pointing to bands in the blot on the right designate the cleaved forms of caspase-3. […] The U937 GCN2−/− cell line is derived from a single clone of U937 parental cells stably infected with a lentiviral CRISPR vector targeting GCN2. […] Cells were treated with DMSO or Compound D for 24 hours. On day 3 after Compound D treatment, cell proliferation was assessed by CTG. Result shown in all figure panels is representative of at least three biological replicates. Data in FIGS. 13C, 13D and 13E are shown as mean±SD, n=3 technical replicates.\nSpecifically, following incubation with DMSO or Compound D, cells were collected via centrifugation at 2000 rpm for 2 minutes. Cell pellets were then washed once in ice-cold PBS and snap-frozen in liquid nitrogen. […] The cDNA transcripts of GADPH, DDIT3 (CHOP), DDIT4 (REDD), and ATF3 were quantified by the ViiA™ 7 Real-Time PCR System using TaqMan Gene Expression Assay probes (Invitrogen). The cDNA level of various CRBN transcripts was quantified using RT^2 SYBR Green qPCR Mastermixes (Qiagen). […]"}, "[2]": {"system": "U937 cells stably expressing Cas9", "test": "Genome-wide CRISPR-Cas9 screen of Compound D response", "protocol": "FIG. 4A illustrates the schematic showing the design of the genome-wide CRISPR screen to identify molecular determinants of Compound D response. FIG. 4B illustrates the cell proliferation curve of U937-Cas9 cells transduced with the lentiviral sgRNA library and treated with DMSO or Compound D. Three days post-transduction, cells were treated with DMSO or 10 μM Compound D for 9 days. FIG. 4C illustrates normalized sgRNA read count comparison of different treatment conditions and technical replicates on day 3 and day 12 post-transduction of the lentiviral sgRNA library. 150 k sgRNAs are used in the scatter plots. Numbers in the upper right boxes indicate the Pearson correlation coefficient between samples. “***” indicates the correlation p-value is <0.001. sgRNAs targeting UBE2G1 or CRBN were shown in green and red, respectively. FIG. 4D illustrates pathway enrichment analysis of genes enriched by Compound D treatment with log 2 fold change (log 2FC)>2 and false discovery rate (FDR)<0.05 relative to the DMSO control. The color and size of the dots represent adjusted significance level and gene ratio respectively. Gene ratios refer to the number of input genes annotated to an individual pathway as a ratio of all input genes annotated to any Reactome pathway. […] The X axis denotes the Compound D enrichment score shown as log 2FC; the Y axis denotes the gene essentiality score shown as log 2FC (T12_DMSO vs T3_DMSO). Some of these genes were grouped into 10 functional modules with different color coding. […] Enriched pathways from the Reactome database were identified using Fisher's exact test and were selected by adjusted p-value (FDR)<0.05. Pathway nodes are color-coded with different shades of red according to their statistical significance. The grey nodes in the graph depict pathway genes that were enriched by Compound D treatment. The core enriched pathways modulating the response to Compound D are highlighted with green circles. FIGS. 4G and 4H show the log 2FC values of sgRNAs targeting Compound D enriched genes in the functional modules as indicated. […]"}, "AML cell lines": {"system": "AML cell lines", "test": "Cell proliferation assay (CTG) in AML cell lines, 72 hours", "details": "11 AML cell lines, Day 3", "quoted_text": "On Day 3, cell proliferation was assessed by the Cell-Titer Glo (CTG) assay.\nFor cell proliferation assays, human cancer cell lines cultured in the growth medium recommended by the vendor (as described above) were seeded into black 384-well plates containing DMSO or test compounds. The seeding density of each cell line was optimized to allow for cell growth in the linear growth phase during a 3-day culture period. To test the compounds' effect on cell proliferation in AML cell lines, 5,000 to 10,000 cells per well in 200 L complete culture media were seeded into black 96-well plates containing DMSO or test compounds. After 72 hours, cell proliferation was assessed using the CTG assay according to the manufacturer's instructions. […] Relative cell proliferation was normalized against cell growth values on day 4. The growth inhibitory curve was processed and graphed using GraphPad Prism Version 7 (P<0.05, unpaired two-sided t-test, is considered as significant)."}},
  "data": [
    {"smiles": "O=C1CCC(N2Cc3cc(CNC(=O)C(F)(F)c4ccc(Cl)cc4)ccc3C2=O)C(=O)N1", "note": "(stereo not drawn) [Compound D, 2-(4-chlorophenyl)-N-((2-(2,6-dioxopiperidin-3-yl)-1-oxoisoindolin-5-yl)methyl)-2,2-difluoroacetamide]", "values": [
      {"measurement": "mRNA level of ATF4 target genes", "setting": "[1]; U937 24 hours, KG-1 200 nM for 2, 4 or 6 hours", "value": "marked induction of ATF4 target genes ATF3, CHOP and DDIT4 at the mRNA level"},
      {"measurement": "induction of ATF3 and CHOP after GCN2 loss", "setting": "[1]; U937 GCN2-/-, 24 hours", "value": "largely, but not completely, blocked the induction of other ATF4 target genes ATF3 and CHOP"},
      {"measurement": "growth of U937 cells transduced with the lentiviral CRISPR library", "setting": "[2]; 10 μM, 9 days", "value": "growth arrest of U937 cells"},
      {"measurement": "genes whose knockout conferred resistance (sgRNA enrichment)", "setting": "[2]; U937-Cas9, 1 μM or 10 μM", "value": "knockout of CRBN, TSC1, TSC2, ILF2, ILF3, ATF4, GCN2, DDIT4 or GCN1L1 genes conferred resistance to lethal doses of Compound D"},
      {"measurement": "genes whose knockout enhanced sensitivity (sgRNA drop-out)", "setting": "[2]; U937-Cas9, sensitivity screen", "value": "knockout of RPTOR, MTOR, RICTOR, GSPT1 or DDX5 enhanced sensitivity to lethal doses of Compound D"},
      {"measurement": "anti-proliferative activity", "setting": "AML cell lines", "value": "potent anti-proliferative activity in 10 out of 11 AML cell lines"}
    ]}
  ]
}
